Reference: patent publication US9133183B2, “Imidazolidinones and analogs exhibiting anti-cancer and anti-proliferative activities” (Deciphera Pharmaceuticals, LLC, priority 2013, dated 2015)
Like-named read-outs stand apart in the source and are kept apart here. Blank lines part the entries; values can stand above or below the molecule they belong to.

Legend:
[1] = molecular target: unphosphorylated c-KIT kinase (uKIT, Seq. ID no. 2) (Homo sapiens (Human), UniProt P10721); test: uKit kinase assay (coupled pyruvate kinase/lactate dehydrogenase); assay type: biochemical; details: enzymatic assay, ATP 2000 μM
Chain of unphosphorylated c-KIT kinase (uKIT, Seq. ID no. 2) (P10721 other isoform, or with tags, fused parts or gaps): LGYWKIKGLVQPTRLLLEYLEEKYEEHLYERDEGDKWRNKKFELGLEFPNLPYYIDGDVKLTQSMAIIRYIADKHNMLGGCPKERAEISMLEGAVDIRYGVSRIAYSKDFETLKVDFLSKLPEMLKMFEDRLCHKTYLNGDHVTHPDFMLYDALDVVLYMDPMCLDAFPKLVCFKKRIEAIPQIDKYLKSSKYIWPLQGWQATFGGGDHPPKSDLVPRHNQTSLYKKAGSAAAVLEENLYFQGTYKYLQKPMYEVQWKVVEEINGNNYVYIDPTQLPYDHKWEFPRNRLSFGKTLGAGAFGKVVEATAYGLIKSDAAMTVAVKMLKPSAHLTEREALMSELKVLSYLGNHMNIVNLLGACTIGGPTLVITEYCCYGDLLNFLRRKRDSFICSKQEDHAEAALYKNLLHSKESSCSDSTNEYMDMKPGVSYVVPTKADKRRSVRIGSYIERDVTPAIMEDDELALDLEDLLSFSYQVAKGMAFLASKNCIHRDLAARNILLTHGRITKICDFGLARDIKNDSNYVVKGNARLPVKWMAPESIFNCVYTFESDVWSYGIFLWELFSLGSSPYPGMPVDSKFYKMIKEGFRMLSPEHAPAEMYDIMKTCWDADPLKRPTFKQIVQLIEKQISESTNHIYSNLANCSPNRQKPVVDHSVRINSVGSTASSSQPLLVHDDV
Method in brief: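 The read-out was a continuous PK/LDH-coupled decrease in NADH absorbance at 340 nm, monitored at 30 °C over 4 h. IC50 came from % inhibition based on rates at 3–4 h. The GST-tagged unphosphorylated KIT (12 nM) was used with polyE4Y substrate, 2000 μM ATP and 10 mM Mg2+ at pH 7.5, with serially diluted compound.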

[2] = molecular target: unphosphorylated PDGFRβ kinase (uPDGFRβ, Seq. ID No. 3) (Homo sapiens (Human), UniProt P09619); test: Unphosphorylated PDGFRβ kinase assay (coupled pyruvate kinase/lactate dehydrogenase); assay type: biochemical; details: enzymatic assay, ATP 500 μM
Chain of unphosphorylated PDGFRβ kinase (uPDGFRβ, Seq. ID No. 3) (P09619 557-1106): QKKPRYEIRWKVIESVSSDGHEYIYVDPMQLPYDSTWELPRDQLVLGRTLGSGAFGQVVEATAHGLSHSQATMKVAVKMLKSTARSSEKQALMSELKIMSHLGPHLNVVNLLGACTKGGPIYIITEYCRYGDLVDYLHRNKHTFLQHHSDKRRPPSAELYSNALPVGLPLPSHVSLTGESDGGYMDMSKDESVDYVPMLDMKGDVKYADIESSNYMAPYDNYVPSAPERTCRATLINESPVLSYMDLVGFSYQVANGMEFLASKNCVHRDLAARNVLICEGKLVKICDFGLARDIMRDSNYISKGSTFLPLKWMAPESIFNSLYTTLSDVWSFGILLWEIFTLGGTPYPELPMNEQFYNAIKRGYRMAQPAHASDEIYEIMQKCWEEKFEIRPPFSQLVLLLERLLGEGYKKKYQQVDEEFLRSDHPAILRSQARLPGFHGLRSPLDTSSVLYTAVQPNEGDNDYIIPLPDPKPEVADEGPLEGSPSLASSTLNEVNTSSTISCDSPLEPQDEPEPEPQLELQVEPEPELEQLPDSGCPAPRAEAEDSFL
Procedure: Unphosphorylated PDGFRβ (uPDGFRβ) Kinase (Seq. ID No. 3) Assay
Activity of unphosphorylated PDGFRβ kinase (uPDGFRβ, Seq. ID No. 3) was determined by following the production of ADP from the kinase reaction with ATP and poly E4Y as substrates through coupling with the pyruvate kinase/lactate dehydrogenase system (e.g., Schindler et al. Science (2000) 289: 1938-1942). In this assay, the oxidation of NADH (thus the decrease at A340 nm) was continuously monitored spectrophometrically. The reaction mixture (100 μL) contained PDGFRβ (DeCode, 15.7 nM), polyE4Y (2.5 mg/mL), MgCl2 (10 mM), pyruvate kinase (4 units), lactate dehydrogenase (0.7 units), phosphoenol pyruvate (1 mM) and NADH (0.28 mM) and ATP (500 μM) in a 90 mM Tris buffer containing 0.2% octyl-glucoside and 1% DMSO, at pH 7.5. The inhibition reaction was started by mixing serial diluted test compound with the above reaction mixture. The absorption at 340 nm was monitored continuously for 4 h at 30° C. on a Polarstar Optima or Synergy 2 plate reader. The reaction rate was calculated using the 1.5 to 2.5 h time frame. Percent inhibition was obtained by comparison of reaction rate with that of a control (i.e., with no test compound). IC50 values were calculated from a series of percent inhibition values determined at a range of inhibitor concentrations using software routines as implemented in the GraphPad Prism software package.
uPDGFRβ Kinase Sequence (Residues 557-1106) Used for Screening (Seq ID No. 3)

[3] = tested on: osteoclast precursors; test: Osteoclast tartrate-resistant acid phosphatase assay; assay type: cell-based; details: 7-14 days, RANKL and M-CSF
[4] = tested on: M-NFS-60 cells; test: M-NFS-60 cell proliferation assay (resazurin); assay type: cell-based; details: 67 h incubation
Method in brief: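 Cells kept in medium containing 20 ng/mL mouse recombinant M-CSF. Fluorescence was read at ex 540/em 600 nm, and IC50 was fitted from percent inhibition across a range of inhibitor concentrations.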

[5] = molecular target: unphosphorylated c-FMS kinase (uFMS, Seq. ID no. 1) (Homo sapiens (Human), UniProt P07333); test: uFMS kinase assay (ADP production coupled to pyruvate kinase/lactate dehydrogenase); assay type: biochemical; details: enzymatic assay, ATP 500 μM
Chain of unphosphorylated c-FMS kinase (uFMS, Seq. ID no. 1) (P07333 538-972): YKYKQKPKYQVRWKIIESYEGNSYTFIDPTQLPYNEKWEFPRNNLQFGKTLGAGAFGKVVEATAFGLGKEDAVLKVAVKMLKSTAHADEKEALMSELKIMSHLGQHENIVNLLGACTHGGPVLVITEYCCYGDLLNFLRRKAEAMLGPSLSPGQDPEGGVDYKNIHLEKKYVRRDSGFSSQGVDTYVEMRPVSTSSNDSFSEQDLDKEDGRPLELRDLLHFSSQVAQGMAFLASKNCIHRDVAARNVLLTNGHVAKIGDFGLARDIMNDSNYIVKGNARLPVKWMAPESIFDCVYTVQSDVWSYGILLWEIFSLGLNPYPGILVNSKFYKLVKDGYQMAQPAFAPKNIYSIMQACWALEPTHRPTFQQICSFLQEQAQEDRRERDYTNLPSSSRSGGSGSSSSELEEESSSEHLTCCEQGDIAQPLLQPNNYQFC
Method in brief: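 Unphosphorylated FMS (10 nM) with polyE4Y 1 mg/mL and 500 μM ATP in 90 mM Tris pH 7.5, 10 mM MgCl2, 0.2% octyl-glucoside, 1% DMSO. ADP formation was coupled via pyruvate kinase/LDH to NADH oxidation, followed at A340 for 4 h at 30° C.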

IC50 [1]: 10 to 100 nM
IC50 [2]: > 1000 nM
IC50 ([3]; Osteoclast): 100 to 1000 nM
IC50 ([5]; read-out: uFMS): 10 to 100 nM
Structure (SMILES): Cc1cc(-c2cc(Oc3ccc(NC(=O)N4CCN(C5CCOCC5)C4=O)nc3)ccn2)ccn1 [Example 51, N-(5-((2′-methyl-[2,4′-bipyridin]-4-yl)oxy)pyridin-2-yl)-2-oxo-3-(tetrahydro-2H-pyran-4-yl)imidazolidine-1-carboxamide]
IC50 [4]: 10 to 100 nM

IC50 [1]: > 1000 nM
IC50 [2]: > 1000 nM
IC50 ([3]; Osteoclast): 100 to 1000 nM
IC50 ([5]; read-out: uFMS): 10 to 100 nM
Structure (SMILES): Cc1ccc(-c2cc(Oc3ccc(NC(=O)N4CCN(CC(F)(F)F)C4=O)nc3C)ccn2)cn1 [Example 53, N-(6-methyl-5-((6′-methyl-[2,3′-bipyridin]-4-yl)oxy)pyridin-2-yl)-2-oxo-3-(2,2,2-trifluoroethyl)imidazolidine-1-carboxamide]
IC50 [4]: 10 to 100 nM

IC50 [1]: > 1000 nM
IC50 [2]: > 1000 nM
IC50 ([3]; Osteoclast): 100 to 1000 nM
IC50 ([5]; read-out: uFMS): 100 to 1000 nM
Structure (SMILES): Cn1cc(-c2cc(Oc3ccc(NC(=O)N4CCN(CC#N)C4=O)nc3)ccn2)cn1 [Example 55, 3-(cyanomethyl)-N-(5-((2-(1-methyl-1H-pyrazol-4-yl)pyridin-4-yl)oxy)pyridin-2-yl)-2-oxoimidazolidine-1-carboxamide]
IC50 [4]: 100 to 1000 nM

IC50 [1]: 10 to 100 nM
IC50 [2]: 100 to 1000 nM
IC50 ([3]; Osteoclast): < 10 nM
IC50 ([5]; read-out: uFMS): < 10 nM
Structure (SMILES): COC[C@@H](C)N1CCN(C(=O)Nc2ccc(Oc3ccnc(-c4cnn(C)c4)c3)cn2)C1=O [Example 59, (R)-3-(1-methoxypropan-2-yl)-N-(5-((2-(1-methyl-1H-pyrazol-4-yl)pyridin-4-yl)oxy)pyridin-2-yl)-2-oxoimidazolidine-1-carboxamide]
IC50 [4]: < 10 nM

IC50 [1]: 10 to 100 nM
IC50 [2]: 100 to 1000 nM
IC50 ([3]; Osteoclast): 10 to 100 nM
IC50 ([5]; read-out: uFMS): 10 to 100 nM
Structure (SMILES): Cc1ncc(-c2cc(Oc3ccc(NC(=O)N4CCN(C5CCOCC5)C4=O)nc3)ccn2)s1 [Example 60, N-(5-((2-(2-methylthiazol-5-yl)pyridin-4-yl)oxy)pyridin-2-yl)-2-oxo-3-(tetrahydro-2H-pyran-4-yl)imidazolidine-1-carboxamide]
IC50 [4]: 10 to 100 nM

IC50 [1]: 10 to 100 nM
IC50 [2]: > 1000 nM
IC50 ([3]; Osteoclast): < 10 nM
IC50 ([5]; read-out: uFMS): < 10 nM
Structure (SMILES): CCN1CCN(C(=O)Nc2ccc(Oc3ccnc(-c4ccc(N5CCN(C)CC5)cc4)c3)c(C)n2)C1=O [Example 68, 3-ethyl-N-(6-methyl-5-((2-(4-(4-methylpiperazin-1-yl)phenyl)pyridin-4-yl)oxy)pyridin-2-yl)-2-oxoimidazolidine-1-carboxamide]
IC50 [4]: 10 to 100 nM

IC50 [1]: 10 to 100 nM
IC50 [2]: > 1000 nM
IC50 ([3]; Osteoclast): 10 to 100 nM
IC50 ([5]; read-out: uFMS): 10 to 100 nM
Structure (SMILES): CCN1CCN(C(=O)Nc2ccc(Oc3ccnc(-c4cnc(C)s4)c3)cn2)C1=O [Example 69, 3-ethyl-N-(5-((2-(2-methylthiazol-5-yl)pyridin-4-yl)oxy)pyridin-2-yl)-2-oxoimidazolidine-1-carboxamide]
IC50 [4]: 100 to 1000 nM

IC50 [1]: 100 to 1000 nM
IC50 [2]: > 1000 nM
IC50 ([3]; Osteoclast): 10 to 100 nM
IC50 ([5]; read-out: uFMS): 10 to 100 nM
Structure (SMILES): CCN1CCN(C(=O)Nc2ccc(Oc3ccnc(-c4cnc(C)s4)c3)c(C)n2)C1=O [Example 70, 3-ethyl-N-(6-methyl-5-((2-(2-methylthiazol-5-yl)pyridin-4-yl)oxy)pyridin-2-yl)-2-oxoimidazolidine-1-carboxamide]
IC50 [4]: 100 to 1000 nM

IC50 [1]: 10 to 100 nM
IC50 [2]: 100 to 1000 nM
IC50 ([3]; Osteoclast): 10 to 100 nM
IC50 ([5]; read-out: uFMS): < 10 nM
Structure (SMILES): Cc1cc(NC(=O)N2CCN(C3CC3)C2=O)nc(C)c1Oc1ccnc(-c2cnn(C)c2)c1 [Example 71, 3-cyclopropyl-N-(4,6-dimethyl-5-((2-(1-methyl-1H-pyrazol-4-yl)pyridin-4-yl)oxy)pyridin-2-yl)-2-oxoimidazolidine-1-carboxamide]
IC50 [4]: 10 to 100 nM

The remaining lines, values behind:

Structure (SMILES): CC(C)N1CCN(C(=O)Nc2ncc(Oc3ccnc(-c4cnn(C)c4)c3)cn2)C1=O [Example 2, 3-isopropyl-N-(5-((2-(1-methyl-1H-pyrazol-4-yl)pyridin-4-yl)oxy)pyrimidin-2-yl)-2-oxoimidazolidine-1-carboxamide]
IC50 [1]: 10 to 100 nM
IC50 [2]: > 1000 nM
IC50 ([3]; Osteoclast): < 10 nM
IC50 [4]: 10 to 100 nM
IC50 ([5]; read-out: uFMS): 10 to 100 nM

Structure (SMILES): COC(C)(C)CCN1CCN(C(=O)Nc2ccc(Oc3ccnc(-c4cnn(C)c4)c3)cn2)C1=O [Example 24, 3-(3-methoxy-3-methylbutyl)-N-(5-((2-(1-methyl-1H-pyrazol-4-yl)pyridin-4-yl)oxy)pyridin-2-yl)-2-oxoimidazolidine-1-carboxamide]
IC50 [1]: 10 to 100 nM
IC50 [2]: 100 to 1000 nM
IC50 ([3]; Osteoclast): 10 to 100 nM
IC50 [4]: 10 to 100 nM
IC50 ([5]; read-out: uFMS): 10 to 100 nM

Structure (SMILES): Cc1nc(NC(=O)N2CCN([C@@H]3CCOC3)C2=O)ccc1Oc1ccnc(-c2cnn(C)c2)c1 [Example 28, (R)—N-(6-methyl-5-((2-(1-methyl-1H-pyrazol-4-yl)pyridin-4-yl)oxy)pyridin-2-yl)-2-oxo-3-(tetrahydrofuran-3-yl)imidazolidine-1-carboxamide]
IC50 [1]: 100 to 1000 nM
IC50 [2]: > 1000 nM
IC50 [3]: < 10 nM
IC50 [4]: 10 to 100 nM
IC50 ([5]; uFMS): < 10 nM

Structure (SMILES): Cn1cc(-c2cc(Oc3ccc(NC(=O)N4CCN(C5CCCC5)C4=O)nc3)ccn2)cn1 [Example 30, 3-cyclopentyl-N-(5-((2-(1-methyl-1H-pyrazol-4-yl)pyridin-4-yl)oxy)pyridin-2-yl)-2-oxoimidazolidine-1-carboxamide]
IC50 [1]: < 10 nM
IC50 [2]: 100 to 1000 nM
IC50 ([3]; Osteoclast): < 10 nM
IC50 [4]: < 10 nM
IC50 ([5]; read-out: uFMS): < 10 nM

Structure (SMILES): CN1CCN(C(=O)Nc2ccc(Oc3ccnc(-c4cnn(C)c4)c3)cn2)C1=O [Example 44, 3-methyl-N-(5-((2-(1-methyl-1H-pyrazol-4-yl)pyridin-4-yl)oxy)pyridin-2-yl)-2-oxoimidazolidine-1-carboxamide]
IC50 [1]: 100 to 1000 nM
IC50 [2]: > 1000 nM
IC50 ([3]; Osteoclast): 10 to 100 nM
IC50 [4]: 100 to 1000 nM
IC50 ([5]; read-out: uFMS): 10 to 100 nM

Structure (SMILES): CCN1CCN(C(=O)Nc2ccc(Oc3ccnc(-c4cnn(C)c4)c3)cn2)C1=O [Example 45, 3-ethyl-N-(5-((2-(1-methyl-1H-pyrazol-4-yl)pyridin-4-yl)oxy)pyridin-2-yl)-2-oxoimidazolidine-1-carboxamide]
IC50 [1]: 10 to 100 nM
IC50 [2]: > 1000 nM
IC50 ([3]; Osteoclast): < 10 nM
IC50 [4]: 10 to 100 nM
IC50 ([5]; read-out: uFMS): < 10 nM

Structure (SMILES): Cn1cc(-c2cc(Oc3ccc(NC(=O)N4CCN(C5CC5)C4=O)nc3)ccn2)cn1 [Example 46, 3-cyclopropyl-N-(5-((2-(1-methyl-1H-pyrazol-4-yl)pyridin-4-yl)oxy)pyridin-2-yl)-2-oxoimidazolidine-1-carboxamide]
IC50 [1]: 10 to 100 nM
IC50 [2]: 100 to 1000 nM
IC50 ([3]; Osteoclast): < 10 nM
IC50 [4]: 10 to 100 nM
IC50 ([5]; read-out: uFMS): < 10 nM

Structure (SMILES): Cc1nc(NC(=O)N2CCN(C3CC3)C2=O)ccc1Oc1ccnc(-c2cnn(C)c2)c1 [Example 47, 3-cyclopropyl-N-(6-methyl-5-((2-(1-methyl-1H-pyrazol-4-yl)pyridin-4-yl)oxy)pyridin-2-yl)-2-oxoimidazolidine-1-carboxamide]
IC50 [1]: 100 to 1000 nM
IC50 [2]: > 1000 nM
IC50 ([3]; Osteoclast): < 10 nM
IC50 [4]: 10 to 100 nM
IC50 ([5]; read-out: uFMS): < 10 nM

Structure (SMILES): Cn1cc(-c2cc(Oc3ccc(NC(=O)N4CCN(CC(F)(F)F)C4=O)nc3)ccn2)cn1 [Example 48, N-(5-((2-(1-methyl-1H-pyrazol-4-yl)pyridin-4-yl)oxy)pyridin-2-yl)-2-oxo-3-(2,2,2-trifluoroethyl)imidazolidine-1-carboxamide]
IC50 [1]: < 10 nM
IC50 [2]: 100 to 1000 nM
IC50 ([3]; Osteoclast): < 10 nM
IC50 [4]: 10 to 100 nM
IC50 ([5]; read-out: uFMS): < 10 nM

Structure (SMILES): Cn1cc(-c2cc(Oc3ccc(NC(=O)N4CCN(C5COC5)C4=O)nc3)ccn2)cn1 [Example 50, N-(5-((2-(1-methyl-1H-pyrazol-4-yl)pyridin-4-yl)oxy)pyridin-2-yl)-3-(oxetan-3-yl)-2-oxoimidazolidine-1-carboxamide]
IC50 [1]: 10 to 100 nM
IC50 [2]: > 1000 nM
IC50 ([3]; Osteoclast): 10 to 100 nM
IC50 [4]: 10 to 100 nM
IC50 ([5]; read-out: uFMS): 10 to 100 nM
